The record followed here is ChEMBL document CHEMBL4354782, “Quinolone antibiotics” (Medchemcomm, 2019).

Converted amounts (≈) assume the structure as drawn.

The test system of one data set is Escherichia coli. The experiment in a line: Antibacterial activity against Escherichia coli by agar diffusion method. It counts as functional. Background: Agar diffusion results depend on both activity and mobility in agar.
For another data set, the system named is Klebsiella. Nature of the data set: Antibacterial activity against Klebsiella by agar diffusion method. Type of data set: functional.
A further data set relates to Bacteroides fragilis. Nature of the data set: Antibacterial activity against Bacteroides fragilis by agar diffusion method. It counts as functional.
A further data set concerns Haemophilus influenzae. The experiment in a line: Antibacterial activity against Haemophilus influenzae with horse blood by agar diffusion method. It counts as functional.
The subject of another data set is Streptococcus pyogenes. The experiment in a line: Antibacterial activity against Streptococcus pyogenes by agar diffusion method. Type of data set: functional.
In a further data set the test system is Enterococcus. Nature of the data set: Antibacterial activity against Enterococcus by agar diffusion method. It counts as functional.
Data set [1] in a line: Cmax in human at 0.75 g, po bid. As to conditions: in vivo.
Data set [2] in a line: AUC in human at 0.75 g, po bid. To be noted: in vivo.
Another data set relates to Pseudomonas aeruginosa. The experiment in a line: Antibacterial activity against Pseudomonas aeruginosa by agar diffusion method. Type of data set: functional.
A further data set relates to Staphylococcus aureus. Nature of the data set: Antibacterial activity against Staphylococcus aureus by agar diffusion method. Type of data set: functional.
In another data set the test system is Streptococcus pneumoniae. The experiment in a line: Antibacterial activity against Streptococcus pneumoniae by agar diffusion method. Type of data set: functional.
A short description of data set [3]: Cmax in human at 0.2 g, po bid. Type of data set: ADME, organism-based. Set-up: dose 0.2 g, route oral. As to conditions: in vivo.
Data set [4] in a line: AUC in human at 0.2 g, po bid. It counts as ADME, organism-based. As to conditions: in vivo.
A short description of data set [5]: Half life in human at 0.2 g, po bid. It counts as ADME, organism-based. As to conditions: in vivo.
Data set [6] can be described thus: Protein binding in human at 0.2 g, po bid. It counts as ADME, organism-based. As to conditions: in vivo, read-out: PB (converted).
The species named for a further data set is Homo sapiens. Nature of the data set: Phototoxicity in human. It counts as organism-based. As to conditions: in vivo.
In a further data set the test system is Clostridium perfringens. Nature of the data set: microbe, parasite or virus in culture.
Data set [7] in a line: Cmax in human at 0.6 g, po. Set-up: dose 0.6 g, route oral. As to conditions: in vivo. Type of data set: ADME.
The nature of data set [8]: AUC in human at 0.6 g, po. To be noted: in vivo. It counts as ADME.
Data set [9] in a line: Half life in human at 0.6 g, po. Type of data set: ADME. As to conditions: in vivo.
Data set [10] is described as follows: Protein binding in human at 0.6 g, po. To be noted: in vivo, read-out: PB (converted). Type of data set: ADME.
Data set [11] can be described thus: Cmax in human at 0.4 g, po. It counts as ADME. More on the design: dose 0.4 g, route oral. To be noted: in vivo.
Data set [12] in a line: AUC in human at 0.4 g, po. It counts as ADME. To be noted: in vivo.
Data set [13] can be described thus: Half life in human at 0.4 g, po. Type of data set: ADME. As to conditions: in vivo.
A short description of data set [14]: Protein binding in human at 0.4 g, po. It counts as ADME. As to conditions: in vivo; for fraction unbound: read-out: PB (converted).
A short description of data set [15]: Cmax in human at 0.32 g, po. More on the design: dose 0.32 g, route oral. As to conditions: in vivo. Type of data set: ADME.
Data set [16] is described as follows: AUC in human at 0.32 g, po. It counts as ADME. As to conditions: in vivo.
Data set [17] is described as follows: Half life in human at 0.32 g, po. As to conditions: in vivo. It counts as ADME.
The nature of data set [18]: Protein binding in human at 0.32 g, po. It counts as ADME. To be noted: in vivo, read-out: PB (converted).
Data set [19] can be described thus: Toxicity in human assessed as gastrointestinal effect.
Data set [20] in a line: Toxicity in human assessed as arthralgia effect.
Data set [21] in a line: Cardiotoxicity in human QTc prolongation. Type of data set: toxicity.
Data set [22] is described as follows: Toxicity in human assessed as hepatic eosinophilia effect.

`O=C(O)c1cn(C2CC2)c2cc(N3CCNCC3)c(F)cc2c1=O` [CIPROFLOXACIN]: the MIC90 in the data set with Escherichia coli is 0.03 µg/mL (≈ 0.0905 µM); with Klebsiella, 0.25 µg/mL (≈ 0.754 µM); with Bacteroides fragilis, 16 µg/mL (≈ 48.3 µM); in the data set on Haemophilus influenzae, 0.03 µg/mL (≈ 0.0905 µM); in the data set on Streptococcus pyogenes, 1 µg/mL (≈ 3.02 µM); in the data set with Enterococcus, 4 µg/mL (≈ 12.1 µM). The Cmax (commonly the peak of the concentration-time curve) in data set [1] was found to be 3500 ng/mL. In addition, the AUC (commonly concentration integrated over time) in [2] was 30000 ng·h/mL.
Take `NC1CCN(c2c(F)cc3c(=O)c(C(=O)O)cn(C4CC4)c3c2Cl)C1` (stereo not given) [CLINAFLOXACIN]: the MIC90 against Escherichia coli stood at 0.01 µg/mL (≈ 0.0273 µM); against Pseudomonas aeruginosa it was 0.5 µg/mL (≈ 1.37 µM); with Klebsiella it was 0.03 µg/mL (≈ 0.082 µM); in the data set on Bacteroides fragilis, 0.25 µg/mL (≈ 0.683 µM); against Haemophilus influenzae, 0.01 µg/mL (≈ 0.0273 µM); against Staphylococcus aureus, 0.06 µg/mL (≈ 0.164 µM). The MIC90 in the data set with Streptococcus pneumoniae was determined as 0.12 µg/mL (≈ 0.328 µM); against Streptococcus pyogenes it was 0.06 µg/mL (≈ 0.164 µM); in the data set with Enterococcus it was 0.25 µg/mL (≈ 0.683 µM); in the data set on Clostridium perfringens, 0.12 µg/mL (≈ 0.328 µM). In data set [3], this molecule registered a Cmax of 1600 ng/mL. The same molecule registered an AUC in [4] of 18000 ng·h/mL. The half-life (as a rule, how long it takes for the measured level to halve) in data set [5] is 6 h. Further, in [6], the fraction unbound was 0.6. Also, the Activity in the data set filed under Homo sapiens is above 10%.
Take `CCn1cc(C(=O)O)c(=O)c2cc(F)c(N3CCNCC3)nc21` [ENOXACIN]: the MIC90 in the data set on Escherichia coli is 0.25 µg/mL (≈ 0.78 µM); in the data set with Pseudomonas aeruginosa, above 64 µg/mL; against Klebsiella, 2 µg/mL (≈ 6.24 µM); with Bacteroides fragilis, above 64 µg/mL; in the data set on Haemophilus influenzae it was 0.12 µg/mL (≈ 0.375 µM); in the data set on Staphylococcus aureus, 2 µg/mL (≈ 6.24 µM). Besides, the MIC90 in the data set on Streptococcus pneumoniae is 64 µg/mL (≈ 200 µM); with Streptococcus pyogenes it was above 64 µg/mL; in the data set on Enterococcus it was 8 µg/mL (≈ 25 µM); against Clostridium perfringens it was above 64 µg/mL. Further, the Cmax in data set [7] turned out to be 3700 ng/mL. For the same molecule, the AUC in [8] worked out at 29000 ng·h/mL. In [9], this molecule showed a half-life of 2 h. Besides, in [10], the fraction unbound was 0.4.
Regarding `C[C@H]1NCc2cc(-c3ccc4c(=O)c(C(=O)O)cn(C5CC5)c4c3OC(F)F)ccc21` [GARENOXACIN], the MIC90 against Escherichia coli was found to be 0.06 µg/mL (≈ 0.141 µM); with Pseudomonas aeruginosa it was 16 µg/mL (≈ 37.5 µM); with Klebsiella, 0.5 µg/mL (≈ 1.17 µM); with Bacteroides fragilis it was 1 µg/mL (≈ 2.35 µM); against Haemophilus influenzae, 0.03 µg/mL (≈ 0.0704 µM); against Staphylococcus aureus, 0.03 µg/mL (≈ 0.0704 µM). In addition, the MIC90 in the data set with Streptococcus pneumoniae worked out at 0.12 µg/mL (≈ 0.281 µM); in the data set with Streptococcus pyogenes, 0.25 µg/mL (≈ 0.586 µM); with Enterococcus, 0.5 µg/mL (≈ 1.17 µM); in the data set on Clostridium perfringens, 0.25 µg/mL (≈ 0.586 µM). Also, the highest level in data set [11] (Cmax) was 5800 ng/mL. Besides, the AUC in [12] was 59000 ng·h/mL. The molecule further showed a half-life in data set [13] of 15 h. For the same molecule, in data set [14], the fraction unbound was 0.13.
With `COc1c(N2CCNC(C)C2)c(F)cc2c(=O)c(C(=O)O)cn(C3CC3)c12` (stereo not given) [GATIFLOXACIN], the MIC90 in the data set with Escherichia coli amounted to 0.06 µg/mL (≈ 0.16 µM); against Pseudomonas aeruginosa it was 4 µg/mL (≈ 10.7 µM); with Klebsiella it was 0.25 µg/mL (≈ 0.666 µM); against Bacteroides fragilis, 1 µg/mL (≈ 2.66 µM); against Haemophilus influenzae, 0.03 µg/mL (≈ 0.0799 µM); against Staphylococcus aureus, 0.25 µg/mL (≈ 0.666 µM). The MIC90 was found to be 0.25 µg/mL (≈ 0.666 µM) in the data set on Streptococcus pneumoniae, 0.25 µg/mL (≈ 0.666 µM) in the data set with Streptococcus pyogenes, 1 µg/mL (≈ 2.66 µM) against Enterococcus and 0.5 µg/mL (≈ 1.33 µM) in the data set with Clostridium perfringens. In data set [11], the highest level (Cmax) was 3800 ng/mL. Besides, the AUC in data set [12] stood at 33000 ng·h/mL. The half-life in [13] was 12 h. In data set [14], the fraction unbound is 0.8.
For the molecule `CO/N=C1\CN(c2nc3c(cc2F)c(=O)c(C(=O)O)cn3C2CC2)CC1CN` (stereo not given) [GEMIFLOXACIN], the MIC90 with Escherichia coli is 0.03 µg/mL (≈ 0.077 µM); against Pseudomonas aeruginosa, 4 µg/mL (≈ 10.3 µM); against Klebsiella, 0.25 µg/mL (≈ 0.642 µM); with Haemophilus influenzae, 0.06 µg/mL (≈ 0.154 µM); in the data set on Staphylococcus aureus it was 0.06 µg/mL (≈ 0.154 µM); with Streptococcus pneumoniae, 0.03 µg/mL (≈ 0.077 µM). Besides, the MIC90 was 0.06 µg/mL (≈ 0.154 µM) in the data set on Streptococcus pyogenes and 4 µg/mL (≈ 10.3 µM) against Enterococcus. In addition, the Cmax in [15] came out at 1000 ng/mL. The molecule also showed an AUC in [16] of 9000 ng·h/mL. The molecule further had a half-life in [17] of 7 h. Also, in data set [18], the fraction unbound is 0.4.
For the molecule `Cc1c(F)c(N2CCNC(C)C2)cc2c1c(=O)c(C(=O)O)cn2C1CC1` (stereo not given) [GREPAFLOXACIN], the MIC90 against Escherichia coli was determined as 0.06 µg/mL (≈ 0.167 µM); in the data set on Pseudomonas aeruginosa, 8 µg/mL (≈ 22.3 µM); with Klebsiella it was 0.12 µg/mL (≈ 0.334 µM); with Bacteroides fragilis, 8 µg/mL (≈ 22.3 µM); in the data set on Haemophilus influenzae, 0.01 µg/mL (≈ 0.0278 µM); with Staphylococcus aureus it was 0.12 µg/mL (≈ 0.334 µM). Besides, the MIC90 against Streptococcus pneumoniae is 0.25 µg/mL (≈ 0.696 µM); with Streptococcus pyogenes, 1 µg/mL (≈ 2.78 µM); in the data set on Enterococcus it was 4 µg/mL (≈ 11.1 µM); in the data set on Clostridium perfringens, 1 µg/mL (≈ 2.78 µM). In data set [11], this molecule had a Cmax of 1400 ng/mL. In data set [12], this molecule gave an AUC of 14000 ng·h/mL. Also, the half-life in data set [13] was 14 h. Moreover, the protein-bound fraction in data set [14] (read-out: PB) stood at 0.5. Also, the Activity in data set [19] was above 10%; in data set [20], 0.5 to 2%; in [21], 2.9%; in [22], 0.006%.
